Measurements published in patent publication US20080167330A1, “Carbamoylsulphoximides as protein kinase inhibitors” (priority 2006, published 2008).

Experiments:
human Aurora-C = biological target: T1, human Aurora-C (Homo sapiens, UniProt Q9UQB9); assay: Aurora-C kinase assay (HTRF); type: biochemical; details: 10 μM ATP
T1 construct: GST; made in house; host or cells: transiently transfected HEK293 cells
T1 sequence (Q9UQB9 1-309): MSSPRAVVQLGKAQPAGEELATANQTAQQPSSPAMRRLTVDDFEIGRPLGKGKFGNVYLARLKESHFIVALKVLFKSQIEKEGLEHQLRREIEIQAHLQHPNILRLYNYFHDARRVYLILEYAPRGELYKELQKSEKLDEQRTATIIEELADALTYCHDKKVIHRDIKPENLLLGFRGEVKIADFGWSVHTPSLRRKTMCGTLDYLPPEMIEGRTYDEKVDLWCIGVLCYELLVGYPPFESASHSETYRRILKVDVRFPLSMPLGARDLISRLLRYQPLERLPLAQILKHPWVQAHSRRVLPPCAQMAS
Description: The Aurora-C inhibitory activity of the substances of this invention was measured in the Aurora-C-HTRF assay (HTRF=Homogeneous Time Resolved Fluorescence) described in the following paragraphs.
Recombinant fusion protein of GST and human Aurora-C was expressed in transiently transfected HEK293 cells and purified by affinity chromatography on glutathione-Sepharose. The substrate used for the kinase reaction was the biotinylated peptide biotin-Ttds-FMRLRRLSTKYRT (C terminus in amide form) which can be purchased for example from JERINI Peptide Technologies (Berlin). Aurora-C was incubated in the presence of various concentrations of test substances in 5 μL of assay buffer [25 mM Hepes/NaOH pH 7.4, 0.5 mM MnCl2, 2.0 mM dithiothreitol, 0.1 mM sodium orthovanadate, 10 μM adenosine triphosphate (ATP), […] substrate, 0.01% (v/v) TritonX-100 (Sigma), 0.05% (w/v) bovine serum albumin (BSA), 1% (v/v) dimethyl sulphoxide] at 22° C. for 60 min. The concentration of Aurora-C was adapted to the particular activity of the enzyme and adjusted so that the assay operated in the linear range. Typical concentrations were in the region of 0.3 nM. The reaction was stopped by adding 5 μl of a solution of HTRF detection reagents (0.2 μM streptavidin-XLent and 1.4 nM anti-phospho-(Ser/Thr)-Akt substrate-Eu-cryptate (Cis biointernational, France, product No. 61P02KAE), a Europium-cryptate-labelled phospho-(Ser/Thr)-Akt substrate antibody [product #9611B, Cell Signaling Technology, Danvers, Mass., USA]) in aqueous EDTA solution (40 mM EDTA, 400 mM KF, 0.05% (w/v) bovine serum albumin (BSA) in 25 mM HEPES/NaOH pH 7.0).
The resulting mixture was incubated at 22° C. for 1 h in order to allow formation of a complex of the biotinylated phosphorylated substrate and the detection reagents. The amount of phosphorylated substrate was then estimated by measuring the resonance energy transfer from the anti-phospho-(Ser/Thr)-Akt substrate-Eu cryptate to the streptavidin-XLent. For this purpose, the fluorescence emissions at 620 nm and 665 nm after excitation at 350 nm were measured in an HTRF measuring instrument, e.g. a Rubystar (BMG Labtechnologies, Offenburg, Germany) or a Viewlux (Perkin-Elmer). The ratio of the emissions at 665 nm and at 622 nm was taken as a measure of the amount of phosphorylated substrate. The data were normalized (enzymic reaction without inhibitor=0% inhibition, all other assay components but no enzyme=100% inhibition) and IC50 values were calculated with a 4-parameter fit using an inhouse software.

CDK1/CycB = biological target: T2, CDK1/CycB (Homo sapiens, UniProt P06493); assay: CDK1/CycB kinase assay; type: biochemical; details: 0.5 μM ATP
T2 construct: GST; purchased ProQinase GmbH, Freiburg; host or cells: baculovirus-infected insect cells (Sf9)
Description: Recombinant CDK1- and CycB-GST fusion proteins, purified from baculovirus-infected insect cells (Sf9), were purchased from ProQinase GmbH, Freiburg. The histone IIIS used as kinase substrate can be purchased from Sigma.
CDK1/CycB (5 ng/μL) was incubated in the presence of various concentrations of test substances (0 μM, and within the range 0.01-100 μM) in 40 μL of assay buffer [50 mM Tris/HCl pH 8.0, 10 mM MgCl2, 0.1 mM Na ortho-vanadate, 1.0 mM dithiothreitol, 0.025% PEG 20000, 0.5 μM ATP, 10 μM histone IIIS, 0.2 μCi/measurement point ^33P-gamma ATP, 0.05% NP40, 1.25% dimethyl sulphoxide] at 22° C. for 10 min. The reaction was stopped by adding EDTA solution (250 mM, pH 8.0, 15 μl/measurement point). 15 μl of each reaction mixture were loaded onto P30 filter strips (from Wallac), and non-incorporated ^33P-ATP was removed by washing the filter strips three times in 0.5% strength phosphoric acid for 10 min each time. After the filter strips had been dried at 70° C. for 1 hour, the filter strips were covered with scintillator strips (MeltiLex™ A, from Wallac) and baked at 90° C. for 1 hour. The amount of incorporated ^33P (substrate phosphorylation) was determined by scintillation measurement in a gamma radiation counter (Wallac).
The measured data were normalized to 0% inhibition (enzyme reaction without inhibitor) and 100% inhibition (all assay components except enzyme). The IC50 values were determined by means of a 4-parameter fit using the company's own software.

[1] = system: human MCF7 breast tumour cells; assay: MCF7 proliferation assay; type: cell-based; details: MCF7, 96 h, 4 days incubation, crystal violet staining
Description: Cultivated human MCF7 breast tumour cells (ATCC HTB-22) were plated out in a density of 5000 cells/measurement point in 200 μl of growth medium (RPMI1640, 10% foetal calf serum, 2 mU/mL insulin, 0.1 nM oestradiol) in a 96-well multititre plate. After 24 hours, the cells from a plate (zero plate) were stained with crystal violet (see below), while the medium in the other plates was replaced by fresh culture medium (200 μl) to which the test substances had been added in various concentrations (0 μM, and in the range 0.01-30 μM; the final concentration of the solvent dimethyl sulphoxide was 0.5%). The cells were incubated in the presence of the test substances for 4 days. The cell proliferation was determined by staining the cells with crystal violet: the cells were fixed by adding 20 μl/measurement point of an 11% strength glutaraldehyde solution at room temperature for 15 min. After the fixed cells had been washed three times with water, the plates were dried at room temperature. The cells were stained by adding 100 μl/measurement point of a 0.1% strength crystal violet solution (pH adjusted to pH 3 by adding acetic acid). After the stained cells had been washed three times with water, the plates were dried at room temperature. The dye was dissolved by adding 100 μl/measurement point of a 10% strength acetic acid solution, and the extinction was determined by photometry at a wavelength of 595 nm. The percentage change in cell growth was calculated by normalizing the measurements to the extinctions of the zero point plate (=0%) and the extinction of the untreated (0 μM) cells (=100%). The IC50 values were determined by means of a 4-parameter fit using the company's own software.

T2 sequence (P06493 whole entry): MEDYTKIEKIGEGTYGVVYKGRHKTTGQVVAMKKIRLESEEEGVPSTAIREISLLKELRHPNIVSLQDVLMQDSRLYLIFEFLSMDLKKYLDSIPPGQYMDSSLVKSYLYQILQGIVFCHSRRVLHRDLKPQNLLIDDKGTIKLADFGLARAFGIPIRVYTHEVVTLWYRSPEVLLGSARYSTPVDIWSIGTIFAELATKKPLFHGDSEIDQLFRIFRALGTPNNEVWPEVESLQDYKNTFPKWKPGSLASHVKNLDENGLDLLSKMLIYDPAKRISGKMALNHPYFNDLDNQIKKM
T2 sequence (P14635 whole entry partner): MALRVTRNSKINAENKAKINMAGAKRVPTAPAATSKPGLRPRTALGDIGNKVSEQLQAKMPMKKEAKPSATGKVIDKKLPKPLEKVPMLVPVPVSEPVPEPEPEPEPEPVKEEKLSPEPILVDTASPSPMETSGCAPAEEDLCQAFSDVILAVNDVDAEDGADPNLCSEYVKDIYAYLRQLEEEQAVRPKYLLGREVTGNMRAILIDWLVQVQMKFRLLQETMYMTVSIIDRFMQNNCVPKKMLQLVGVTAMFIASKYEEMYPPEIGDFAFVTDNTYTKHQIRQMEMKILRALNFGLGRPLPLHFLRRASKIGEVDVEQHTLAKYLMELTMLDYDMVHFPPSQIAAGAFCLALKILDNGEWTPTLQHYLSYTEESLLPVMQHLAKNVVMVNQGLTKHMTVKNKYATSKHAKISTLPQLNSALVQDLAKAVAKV

Molecule `C[C@@H](Nc1nc(Nc2ccc(NC(=O)N=S(C)(C)=O)cc2)ncc1Br)C(C)(C)O` [Example 2, N-({4-[(5-Bromo-4-{[(R)-2-hydroxy-1,2-dimethylpropyl]amino}pyrimidin-2-yl)-amino]phenyl}carbamoyl)-S,S-dimethylsulphoximide] has an IC50 (human Aurora-C) of 0.4 µM, an IC50 (CDK1/CycB) of 0.021 µM and an IC50 [1] of 0.5 µM.
`C[C@@H](O)[C@@H](C)Nc1nc(Nc2cccc(NC(=O)N=S(C)(C)=O)c2)ncc1Br` [Example 5, N-({3-[(5-Bromo-4-{[(1R,2R)-2-hydroxy-1-methylpropyl]amino}pyrimidin-2-yl)amino]phenyl}carbamoyl)-S,S-dimethylsulphoximide] showed an IC50 (human Aurora-C) of 0.054 µM, an IC50 (CDK1/CycB) of 0.01 µM and an IC50 [1] of 0.16 µM.
